Reference: patent US20090118332A1, “Therapeutic Agents - 551” (AstraZeneca AB, priority 2006, published 2009)

Target: T1, human Fatty Acid Synthase (Homo sapiens, UniProt P49327)
T1 construct: made in house
Assay: Human FAS enzyme assay (decrease in NADPH fluorescence)
Type: biochemical
Conditions: % inhibition at a concentration of 100 μmolar
Method in brief: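 In-house human FAS was preincubated with compound and NADPH for 15 min at room temperature in 0.1 M Tris pH 7.5 with EDTA, glutathione and BSA. Malonyl CoA and acetyl CoA (500 μM and 150 μM in the added mix) were then added for 60 min. IC50 came from time-zero-subtracted NADPH fluorescence (340/460 nm).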

T1 sequence (P49327 whole entry): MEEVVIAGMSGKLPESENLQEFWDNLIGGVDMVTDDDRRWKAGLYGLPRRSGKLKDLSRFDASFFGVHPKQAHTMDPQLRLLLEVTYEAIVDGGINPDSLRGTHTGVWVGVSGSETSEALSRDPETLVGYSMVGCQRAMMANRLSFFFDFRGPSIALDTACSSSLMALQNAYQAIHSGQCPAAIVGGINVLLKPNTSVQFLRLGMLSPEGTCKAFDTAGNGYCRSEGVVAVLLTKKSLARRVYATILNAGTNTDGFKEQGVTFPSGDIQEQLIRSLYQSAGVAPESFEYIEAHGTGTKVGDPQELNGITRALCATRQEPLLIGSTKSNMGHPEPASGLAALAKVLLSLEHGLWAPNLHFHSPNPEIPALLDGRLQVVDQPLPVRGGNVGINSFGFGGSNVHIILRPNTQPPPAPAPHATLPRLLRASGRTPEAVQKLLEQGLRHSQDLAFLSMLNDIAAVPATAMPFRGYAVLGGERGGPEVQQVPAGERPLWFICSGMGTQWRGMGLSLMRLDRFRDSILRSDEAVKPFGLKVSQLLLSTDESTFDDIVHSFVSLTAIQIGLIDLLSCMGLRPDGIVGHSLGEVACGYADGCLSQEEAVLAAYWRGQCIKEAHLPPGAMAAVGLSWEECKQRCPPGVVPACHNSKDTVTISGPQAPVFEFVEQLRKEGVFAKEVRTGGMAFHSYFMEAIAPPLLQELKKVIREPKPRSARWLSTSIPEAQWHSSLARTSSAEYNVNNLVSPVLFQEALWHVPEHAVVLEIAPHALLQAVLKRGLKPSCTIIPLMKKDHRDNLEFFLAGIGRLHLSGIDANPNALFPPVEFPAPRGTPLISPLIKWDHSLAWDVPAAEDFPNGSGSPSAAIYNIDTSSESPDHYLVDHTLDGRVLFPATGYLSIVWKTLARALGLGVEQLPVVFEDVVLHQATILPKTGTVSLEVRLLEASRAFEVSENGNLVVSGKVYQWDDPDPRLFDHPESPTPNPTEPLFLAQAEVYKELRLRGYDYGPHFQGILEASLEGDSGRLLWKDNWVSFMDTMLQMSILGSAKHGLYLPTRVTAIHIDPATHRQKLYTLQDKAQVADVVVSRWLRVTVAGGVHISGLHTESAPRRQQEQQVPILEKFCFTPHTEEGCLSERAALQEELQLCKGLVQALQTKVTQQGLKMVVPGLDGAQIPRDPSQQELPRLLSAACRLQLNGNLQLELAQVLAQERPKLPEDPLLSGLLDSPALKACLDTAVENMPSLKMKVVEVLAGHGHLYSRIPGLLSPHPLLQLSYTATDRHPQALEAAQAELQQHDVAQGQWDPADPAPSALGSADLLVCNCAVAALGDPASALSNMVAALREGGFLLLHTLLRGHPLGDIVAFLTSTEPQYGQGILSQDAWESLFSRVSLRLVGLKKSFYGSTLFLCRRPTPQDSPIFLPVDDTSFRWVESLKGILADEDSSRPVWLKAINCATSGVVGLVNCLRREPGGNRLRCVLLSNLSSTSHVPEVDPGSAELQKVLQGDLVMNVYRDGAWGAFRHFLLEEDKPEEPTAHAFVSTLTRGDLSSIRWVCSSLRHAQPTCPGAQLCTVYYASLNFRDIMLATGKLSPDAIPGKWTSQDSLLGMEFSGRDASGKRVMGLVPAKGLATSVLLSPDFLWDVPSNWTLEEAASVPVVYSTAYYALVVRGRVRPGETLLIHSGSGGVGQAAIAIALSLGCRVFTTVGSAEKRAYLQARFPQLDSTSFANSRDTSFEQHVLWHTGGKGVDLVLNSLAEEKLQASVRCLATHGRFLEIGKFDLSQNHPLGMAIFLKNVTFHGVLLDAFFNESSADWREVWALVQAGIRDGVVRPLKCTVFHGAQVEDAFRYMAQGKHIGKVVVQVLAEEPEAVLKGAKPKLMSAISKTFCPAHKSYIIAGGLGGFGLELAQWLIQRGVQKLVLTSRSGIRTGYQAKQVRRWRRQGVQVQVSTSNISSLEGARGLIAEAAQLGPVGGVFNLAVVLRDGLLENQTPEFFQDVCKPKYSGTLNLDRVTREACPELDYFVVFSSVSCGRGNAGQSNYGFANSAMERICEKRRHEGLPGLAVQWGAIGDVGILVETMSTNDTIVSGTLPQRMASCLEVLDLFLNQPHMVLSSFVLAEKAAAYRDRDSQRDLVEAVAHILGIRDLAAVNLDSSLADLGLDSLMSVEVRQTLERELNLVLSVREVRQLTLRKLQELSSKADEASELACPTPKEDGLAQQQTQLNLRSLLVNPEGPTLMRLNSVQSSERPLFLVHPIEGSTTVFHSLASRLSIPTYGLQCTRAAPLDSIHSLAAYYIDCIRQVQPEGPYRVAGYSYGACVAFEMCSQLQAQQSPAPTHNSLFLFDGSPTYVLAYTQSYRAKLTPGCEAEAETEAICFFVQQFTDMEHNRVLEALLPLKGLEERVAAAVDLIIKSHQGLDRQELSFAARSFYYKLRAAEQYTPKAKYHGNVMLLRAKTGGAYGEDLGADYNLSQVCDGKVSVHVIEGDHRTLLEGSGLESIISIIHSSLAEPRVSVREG

SMILES | inhibition at 100 µM
CCC(C)NC(=O)Nc1cc(C(=O)N2CCC(c3ccc(C#N)cc3)CC2)ccc1C (stereo not shown) [Example 226, 1-butan-2-yl-3-[5-[4-(4-cyanophenyl)piperidine-1-carbonyl]-2-methyl-phenyl]urea] | 84.2%
CCCNC(=O)Nc1cc(C(=O)N2CCC(c3ccc(C#N)cc3)CC2)ccc1C [Example 227, 3-[5-[4-(4-cyanophenyl)piperidine-1-carbonyl]-2-methyl-phenyl]-1-propyl-urea] | 90.1%
Cc1ccc(C(=O)N2CCC(c3ccc(C#N)cc3)CC2)cc1NC(=O)NC1CCCCC1 [Example 228, 1-[5-[4-(4-cyanophenyl)piperidine-1-carbonyl]-2-methyl-phenyl]-3-cyclohexyl-urea] | 82.1%
Cc1ccc(C(=O)N2CCC(c3ccc(C#N)cc3)CC2)cc1NC(=O)NC(C)C(C)C (stereo not shown) [Example 229, 1-[5-[4-(4-cyanophenyl)piperidine-1-carbonyl]-2-methyl-phenyl]-3-(3-methylbutan-2-yl)urea] | 88.7%
Cc1ccc(C(=O)N2CCC(c3ccc(C#N)cc3)CC2)cc1NC(=O)NCCC(=O)NCCO [Example 230, 3-[[5-[4-(4-cyanophenyl)piperidine-1-carbonyl]-2-methyl-phenyl]carbamoylamino]-N-(2-hydroxyethyl)propanamide] | 94.3%
Cc1ccc(C(=O)N2CCC(c3ccc(C#N)cc3)CC2)cc1NC(=O)NCCNC(=O)CC(=O)N(C)C [Example 231, N-[2-[[5-[4-(4-cyanophenyl)piperidine-1-carbonyl]-2-methyl-phenyl]carbamoylamino]ethyl]-N′,N′-dimethyl-propanediamide] | 90.3%
CC(=O)NCC(C)NC(=O)Nc1cc(C(=O)N2CCC(c3ccc(C#N)cc3)CC2)ccc1C (stereo not shown) [Example 232, N-[2-[[5-[4-(4-cyanophenyl)piperidine-1-carbonyl]-2-methyl-phenyl]carbamoylamino]propyl]acetamide] | 94.2%
Cc1ccc(C(=O)N2CCC(c3ccc(C#N)cc3)CC2)cc1NC(=O)NCCCNC(=O)N1CCOCC1 [Example 233, N-[3-[[5-[4-(4-cyanophenyl)piperidine-1-carbonyl]-2-methyl-phenyl]carbamoylamino]propyl]morpholine-4-carboxamide] | 86.5%
Cc1ccc(C(=O)N2CCC(c3ccc(C#N)cc3)CC2)cc1NC(=O)NCCNC(N)=O [Example 234, 3-[2-(carbamoylamino)ethyl]-1-[5-[4-(4-cyanophenyl)piperidine-1-carbonyl]-2-methyl-phenyl]urea] | 91.5%
CCCNC(=O)CCCNC(=O)Nc1cc(C(=O)N2CCC(c3ccc(C#N)cc3)CC2)ccc1C [Example 235, 4-[[5-[4-(4-cyanophenyl)piperidine-1-carbonyl]-2-methyl-phenyl]carbamoylamino]-N-propyl-butanamide] | 95.8%
COC(=O)CNC(=O)CNC(=O)Nc1cc(C(=O)N2CCC(c3ccc(C#N)cc3)CC2)ccc1C [Example 237, Methyl 2-[[2-[[5-[4-(4-cyanophenyl)piperidine-1-carbonyl]-2-methyl-phenyl]carbamoylamino]acetyl]amino]acetate] | 90.9%
Cc1ccc(C(=O)N2CCC(c3ccc(C#N)cc3)CC2)cc1NC(=O)NCC(=O)N(C)C [Example 238, 2-[[5-[4-(4-cyanophenyl)piperidine-1-carbonyl]-2-methyl-phenyl]carbamoylamino]-N,N-dimethyl-acetamide] | 89.9%
Cc1ccc(C(=O)N2CCC(c3ccc(C#N)cc3)CC2)cc1NC(=O)N[C@@H](CCS(C)(=O)=O)C(=O)O [Example 240, (2S)-2-[[5-[4-(4-cyanophenyl)piperidine-1-carbonyl]-2-methyl-phenyl]carbamoylamino]-4-methylsulfonyl-butanoic acid] | 99.3%
Cc1ccc(C(=O)N2CCC(c3ccc(C#N)cc3)CC2)cc1NC(=O)NCCC(=O)Nc1cnoc1C [Example 241, 3-[[5-[4-(4-cyanophenyl)piperidine-1-carbonyl]-2-methyl-phenyl]carbamoylamino]-N-(5-methyl-1,2-oxazol-4-yl)propanamide] | 92.4%
Cc1ccc(C(=O)N2CCC(c3ccc(C#N)cc3)CC2)cc1NC(=O)NCCC(=O)N(CCO)CCO [Example 242, 3-[[5-[4-(4-cyanophenyl)piperidine-1-carbonyl]-2-methyl-phenyl]carbamoylamino]-N,N-bis(2-hydroxyethyl)propanamide] | 90.6%
Cc1ccc(C(=O)N2CCC(c3ccc(C#N)cc3)CC2)cc1NC(=O)NCc1ccc(S(C)(=O)=O)cc1 [Example 243, 1-[5-[4-(4-cyanophenyl)piperidine-1-carbonyl]-2-methyl-phenyl]-3-[(4-methylsulfonylphenyl)methyl]urea] | 99.9%
Cc1ccc(C(=O)N2CCC(c3ccc(C#N)cc3)CC2)cc1NC(=O)NCCCn1cccn1 [Example 244, 1-[5-[4-(4-cyanophenyl)piperidine-1-carbonyl]-2-methyl-phenyl]-3-(3-pyrazol-1-ylpropyl)urea] | 96.2%
Cc1cc(CNC(=O)Nc2cc(C(=O)N3CCC(c4ccc(C#N)cc4)CC3)ccc2C)on1 [Example 245, 1-[5-[4-(4-cyanophenyl)piperidine-1-carbonyl]-2-methyl-phenyl]-3-[(3-methyl-1,2-oxazol-5-yl)methyl]urea] | 94.3%
Cc1cc(CNC(=O)Nc2cc(C(=O)N3CCC(c4ccc(C#N)cc4)CC3)ccc2C)no1 [Example 246, 1-[5-[4-(4-cyanophenyl)piperidine-1-carbonyl]-2-methyl-phenyl]-3-[(5-methyl-1,2-oxazol-3-yl)methyl]urea] | 105%
Cc1ccc(C(=O)N2CCC(c3ccc(C#N)cc3)CC2)cc1NC(=O)NCc1cccc(S(C)(=O)=O)c1 [Example 247, 1-[5-[4-(4-cyanophenyl)piperidine-1-carbonyl]-2-methyl-phenyl]-3-[(3-methylsulfonylphenyl)methyl]urea] | 101%
Cc1ccc(C(=O)N2CCC(c3ccc(C#N)cc3)CC2)cc1NC(=O)NCc1nccs1 [Example 248, 1-[5-[4-(4-cyanophenyl)piperidine-1-carbonyl]-2-methyl-phenyl]-3-(1,3-thiazol-2-ylmethyl)urea] | 100%
Cc1cccc(CNC(=O)Nc2cc(C(=O)N3CCC(c4ccc(C#N)cc4)CC3)ccc2C)n1 [Example 249, 1-[5-[4-(4-cyanophenyl)piperidine-1-carbonyl]-2-methyl-phenyl]-3-[(6-methylpyridin-2-yl)methyl]urea] | 84.2%
Cc1ccc(C(=O)N2CCC(c3ccc(C#N)cc3)CC2)cc1NC(=O)NCc1ncccc1C [Example 250, 3-[5-[4-(4-cyanophenyl)piperidine-1-carbonyl]-2-methyl-phenyl]-1-[(3-methylpyridin-2-yl)methyl]urea] | 104%
COc1ncccc1-c1cc(CNC(=O)Nc2cc(C(=O)N3CCC(c4ccc(C#N)cc4)CC3)ccc2C)on1 [Example 251, 1-[5-[4-(4-cyanophenyl)piperidine-1-carbonyl]-2-methyl-phenyl]-3-[[3-(2-methoxypyridin-3-yl)-1,2-oxazol-5-yl]methyl]urea] | 88.4%
COCCCCNC(=O)Nc1cc(C(=O)N2CCC(c3ccc(C#N)cc3)CC2)ccc1C [Example 252, 1-[5-[4-(4-cyanophenyl)piperidine-1-carbonyl]-2-methyl-phenyl]-3-(4-methoxybutyl)urea] | 99.4%
